Legend:
Assay in all cases: cells
CaR-1 = type: functional, cell-based, Homo sapiens; details: Homo sapiens, CaR-1;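 also: growth inhibition of human CaR-1 cancer cells, read out with a cell viability assay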
Description: SANGER: Inhibition of human CaR-1 cell growth in a cell viability assay.

D-502MG = type: functional, cell-based, Homo sapiens; details: Homo sapiens, D-502MG
Description: SANGER: Inhibition of human D-502MG cell growth in a cell viability assay.

DOK = type: functional, cell-based, Homo sapiens; details: Homo sapiens, DOK;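 also: cell viability assay read-out, values reflect inhibition of cell growth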
Description: SANGER: Inhibition of human DOK cell growth in a cell viability assay.

ESS-1 = type: functional, cell-based, Homo sapiens; details: Homo sapiens, ESS-1;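 also: growth inhibition of human ESS-1 cells, read out by a cell viability assay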
Description: SANGER: Inhibition of human ESS-1 cell growth in a cell viability assay.

EW-18 = type: functional, cell-based; details: Homo sapiens;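 also: growth inhibition of EW-18 cells, read out by a cell viability assay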
Description: SANGER: Inhibition of human EW-18 cell growth in a cell viability assay.

EW-3 = type: functional, cell-based; details: Homo sapiens;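 also: cell viability assay read-out, IC50 reflects inhibition of growth of the EW-3 cells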
Description: SANGER: Inhibition of human EW-3 cell growth in a cell viability assay.

HCC1954 = type: functional, cell-based, Homo sapiens; details: Homo sapiens, HCC1954;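 also: growth inhibition of human HCC1954 cells, read out with a cell viability assay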
Description: SANGER: Inhibition of human HCC1954 cell growth in a cell viability assay.

HCE-4 = type: functional, cell-based, Homo sapiens; details: Homo sapiens, HCE-4;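 also: cell viability assay measuring inhibition of growth in the human HCE-4 cell line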
Description: SANGER: Inhibition of human HCE-4 cell growth in a cell viability assay.

HMV-2 cell line = type: functional, cell-based, Homo sapiens; details: Homo sapiens, HMV-2;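 also: growth inhibition of HMV-II cells, read out with a cell viability assay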
Description: SANGER: Inhibition of human HMV-II cell growth in a cell viability assay.

JEG-3 = type: functional, cell-based, Homo sapiens; details: Homo sapiens, JEG-3;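 also: growth inhibition of human JEG-3 cells, read out with a cell viability assay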
Description: SANGER: Inhibition of human JEG-3 cell growth in a cell viability assay.

KARPAS-45 = type: functional, cell-based; details: Homo sapiens;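 also: inhibition of cell line growth, read out through a viability assay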
Description: SANGER: Inhibition of human KARPAS-45 cell growth in a cell viability assay.

KE-37 = type: functional, cell-based; details: Homo sapiens;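 also: growth inhibition of KE-37 cells, read out with a cell viability assay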
Description: SANGER: Inhibition of human KE-37 cell growth in a cell viability assay.

KLE = type: functional, cell-based, Homo sapiens; details: Homo sapiens, KLE;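 also: growth inhibition of human KLE cells, read out with a cell viability assay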
Description: SANGER: Inhibition of human KLE cell growth in a cell viability assay.

KS-1 = type: functional, cell-based, Homo sapiens; details: Homo sapiens, KS-1;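 also: growth inhibition of KS-1 cells, read out with a cell viability assay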
Description: SANGER: Inhibition of human KS-1 cell growth in a cell viability assay.

KU812 cell line = type: functional, cell-based; details: Homo sapiens;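 also: growth inhibition of KU812 cells, read out with a cell viability assay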
Description: SANGER: Inhibition of human KU812 cell growth in a cell viability assay.

KYSE-180 = type: functional, cell-based, Homo sapiens; details: Homo sapiens, KYSE-180;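 also: growth inhibition of KYSE-180 cells, read out with a cell viability assay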
Description: SANGER: Inhibition of human KYSE-180 cell growth in a cell viability assay.

LoVo = type: functional, cell-based; details: Homo sapiens;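 also: growth inhibition of human LoVo cells, read out with a cell viability assay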
Description: SANGER: Inhibition of human LoVo cell growth in a cell viability assay.

M059J = type: functional, cell-based, Homo sapiens; details: Homo sapiens, M059J;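 also: growth inhibition of M059J cells, read out with a cell viability assay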
Description: SANGER: Inhibition of human M059J cell growth in a cell viability assay.

M14 = type: functional, cell-based, Homo sapiens; details: Homo sapiens, M14;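 also: growth inhibition of M14 cells, read out with a cell viability assay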
Description: SANGER: Inhibition of human M14 cell growth in a cell viability assay.

MOLT-16 = type: functional, cell-based; details: Homo sapiens;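 also: growth inhibition of human MOLT-16 cells, read out with a cell viability assay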
Description: SANGER: Inhibition of human MOLT-16 cell growth in a cell viability assay.

MeWo = type: functional, cell-based, Homo sapiens; details: Homo sapiens, MeWo;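 also: growth inhibition of MeWo cells, determined by a cell viability readout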
Description: SANGER: Inhibition of human Mewo cell growth in a cell viability assay.

NCI-H1355 = type: functional, cell-based, Homo sapiens; details: Homo sapiens, NCI-H1355;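 also: growth inhibition of human NCI-H1355 cells, read out by a cell viability assay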
Description: SANGER: Inhibition of human NCI-H1355 cell growth in a cell viability assay.

NCI-H1755 = type: functional, cell-based, Homo sapiens; details: Homo sapiens, NCI-H1755;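 also: cell viability readout used to measure growth inhibition of NCI-H1755 cells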
Description: SANGER: Inhibition of human NCI-H1755 cell growth in a cell viability assay.

NCI-H292 = type: functional, cell-based, Homo sapiens; details: Homo sapiens, NCI-H292;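 also: growth inhibition of NCI-H292 cells, read out with a cell viability assay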
Description: SANGER: Inhibition of human NCI-H292 cell growth in a cell viability assay.

NCI-H69 = type: functional, cell-based; details: Homo sapiens;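 also: growth inhibition of the cell line, read out with a cell viability assay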
Description: SANGER: Inhibition of human NCI-H69 cell growth in a cell viability assay.

NCI-H82 = type: functional, cell-based; details: Homo sapiens;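 also: growth inhibition of NCI-H82 cells, measured with a cell viability readout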
Description: SANGER: Inhibition of human NCI-H82 cell growth in a cell viability assay.

NMC-G1 = type: functional, cell-based, Homo sapiens; details: Homo sapiens, NMC-G1;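 also: growth inhibition of the NMC-G1 cell line, measured with a cell viability read-out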
Description: SANGER: Inhibition of human NMC-G1 cell growth in a cell viability assay.

OCUB-M = type: functional, cell-based, Homo sapiens; details: Homo sapiens, OCUB-M;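 also: growth inhibition of the cancer cell line, read out through a cell viability assay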
Description: SANGER: Inhibition of human OCUB-M cell growth in a cell viability assay.

OVCAR-4 = type: functional, cell-based, Homo sapiens; details: Homo sapiens, OVCAR-4;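 also: growth inhibition of human OVCAR-4 cells, measured with a cell viability assay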
Description: SANGER: Inhibition of human OVCAR-4 cell growth in a cell viability assay.

P30-OHK = type: functional, cell-based; details: Homo sapiens;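 also: growth inhibition of the P30-OHK cell line, read out with a cell viability assay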
Description: SANGER: Inhibition of human P30-OHK cell growth in a cell viability assay.

PC-3 = type: functional, cell-based, Homo sapiens; details: Homo sapiens, PC-3;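 also: cell viability assay measuring growth inhibition of PC-3 cells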
Description: SANGER: Inhibition of human PC-3 cell growth in a cell viability assay.

RKO = type: functional, cell-based, Homo sapiens; details: Homo sapiens, RKO;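 also: growth inhibition of human RKO cells, read out with a cell viability assay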
Description: SANGER: Inhibition of human RKO cell growth in a cell viability assay.

RPMI-8866 = type: functional, cell-based; details: Homo sapiens
Description: SANGER: Inhibition of human RPMI-8866 cell growth in a cell viability assay.

S-117 = type: functional, cell-based, Homo sapiens; details: Homo sapiens, S-117
Description: SANGER: Inhibition of human S-117 cell growth in a cell viability assay.

SCC-9 = type: functional, cell-based, Homo sapiens; details: Homo sapiens, SCC-9;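 also: Read-out is a cell viability assay, with values giving inhibition of cell growth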
Description: SANGER: Inhibition of human SCC-9 cell growth in a cell viability assay.

SF-126 = type: functional, cell-based, Homo sapiens; details: Homo sapiens, SF-126;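 also: growth inhibition of human SF126 cells, read out with a cell viability assay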
Description: SANGER: Inhibition of human SF126 cell growth in a cell viability assay.

SK-LU-1 = type: functional, cell-based, Homo sapiens; details: Homo sapiens, SK-LU-1;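 also: cell viability assay measuring growth inhibition of human SK-LU-1 cells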
Description: SANGER: Inhibition of human SK-LU-1 cell growth in a cell viability assay.

SW-620 = type: functional, cell-based, Homo sapiens; details: Homo sapiens, SW-620;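 also: growth inhibition of human SW-620 cells, measured by a cell viability assay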
Description: SANGER: Inhibition of human SW620 cell growth in a cell viability assay.

SW872 = type: functional, cell-based, Homo sapiens; details: Homo sapiens, SW872;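 also: growth inhibition of SW872 cells, read out by a viability assay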
Description: SANGER: Inhibition of human SW872 cell growth in a cell viability assay.

SiHa = type: functional, cell-based, Homo sapiens; details: Homo sapiens, SiHa;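 also: Viability-based readout of growth inhibition in SiHa cells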
Description: SANGER: Inhibition of human SiHa cell growth in a cell viability assay.

786-0 = type: functional, cell-based, Homo sapiens; details: Homo sapiens
Description: SANGER: Inhibition of human 786-0 cell growth in a cell viability assay.

A3-KAW = type: functional, cell-based; details: Homo sapiens;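 also: growth inhibition of human A3-KAW cells, read out with a cell viability assay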
Description: SANGER: Inhibition of human A3-KAW cell growth in a cell viability assay.

A388 = type: functional, cell-based, Homo sapiens; details: Homo sapiens, A388;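 also: growth inhibition of human A388 cells, read out with a cell viability assay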
Description: SANGER: Inhibition of human A388 cell growth in a cell viability assay.

AN3-CA = type: functional, cell-based; details: Homo sapiens;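 also: growth inhibition of human AN3-CA cells measured by a cell viability assay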
Description: SANGER: Inhibition of human AN3-CA cell growth in a cell viability assay.

AU565 = type: functional, cell-based, Homo sapiens; details: Homo sapiens, AU565;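 also: cell viability assay measuring growth inhibition of human AU565 cells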
Description: SANGER: Inhibition of human AU565 cell growth in a cell viability assay.

BFTC-905 = type: functional, cell-based, Homo sapiens; details: Homo sapiens, BFTC-905
Description: SANGER: Inhibition of human BFTC-905 cell growth in a cell viability assay.

C2BBe1 = type: functional, cell-based, Homo sapiens; details: Homo sapiens, C2BBe1;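 also: growth inhibition of C2BBe1 cells, read out through a viability assay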
Description: SANGER: Inhibition of human C2BBe1 cell growth in a cell viability assay.

C8166 = type: functional, cell-based; details: Homo sapiens;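 also: growth inhibition of human C8166 cells measured by a cell viability assay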
Description: SANGER: Inhibition of human C8166 cell growth in a cell viability assay.

CAL-51 = type: functional, cell-based, Homo sapiens; details: Homo sapiens, CAL-51;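 also: human CAL-51 cell line, growth inhibition read out via a cell viability assay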
Description: SANGER: Inhibition of human CAL-51 cell growth in a cell viability assay.

TGW = type: functional, cell-based; details: Homo sapiens;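 also: growth inhibition of human TGW cells, read out with a cell viability assay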
Description: SANGER: Inhibition of human TGW cell growth in a cell viability assay.

U2OS = type: functional, cell-based, Homo sapiens, U-2-OS; details: Homo sapiens, U2OS;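 also: growth inhibition of human U-2-OS cells, determined with a cell viability assay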
Description: SANGER: Inhibition of human U-2-OS cell growth in a cell viability assay.

VM-CUB-1 = type: functional, cell-based; details: Homo sapiens;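 also: cell viability assay measuring growth inhibition of the human VM-CUB-1 cell line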
Description: SANGER: Inhibition of human VM-CUB-1 cell growth in a cell viability assay.

CAPAN-1 = type: functional, cell-based, Homo sapiens; details: Homo sapiens, CAPAN-1;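 also: growth suppression of CAPAN-1 cells, read out by a cell viability assay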
Description: SANGER: Inhibition of human CAPAN-1 cell growth in a cell viability assay.

COLO-668 = type: functional, cell-based, Homo sapiens; details: Homo sapiens, COLO-668
Description: SANGER: Inhibition of human COLO-668 cell growth in a cell viability assay.

Cn1cncc1[C@@](N)(c1ccc(Cl)cc1)c1ccc2c(c1)c(-c1cccc(Cl)c1)cc(=O)n2C [TIPIFARNIB]
IC50 (CaR-1): > 16000 nM | IC50 (D-502MG): > 16000 nM | IC50 (DOK): > 16000 nM | IC50 (ESS-1): > 16000 nM | IC50 (EW-18): 458 nM | IC50 (EW-3): > 16000 nM | IC50 (HCC1954): 14300 nM | IC50 (HCE-4): 3040 nM | IC50 (HMV-2 cell line): 216 nM | IC50 (JEG-3): 8610 nM | IC50 (KARPAS-45): 12900 nM | IC50 (KE-37): 2320 nM | IC50 (KLE): 8910 nM | IC50 (KS-1): 770 nM | IC50 (KU812 cell line): 97.1 nM | IC50 (KYSE-180): 3370 nM | IC50 (LoVo): 241 nM | IC50 (M059J): > 16000 nM | IC50 (M14): > 16000 nM | IC50 (MOLT-16): 258 nM | IC50 (MeWo): 2040 nM | IC50 (NCI-H1355): 974 nM | IC50 (NCI-H1755): > 16000 nM | IC50 (NCI-H292): 9280 nM | IC50 (NCI-H69): > 16000 nM | IC50 (NCI-H82): 9100 nM | IC50 (NMC-G1): 425 nM | IC50 (OCUB-M): 472 nM | IC50 (OVCAR-4): 2210 nM | IC50 (P30-OHK): 264 nM | IC50 (PC-3): 11300 nM | IC50 (RKO): 1230 nM | IC50 (RPMI-8866): > 16000 nM | IC50 (S-117): 9590 nM | IC50 (SCC-9): > 16000 nM | IC50 (SF-126): 3880 nM | IC50 (SK-LU-1): 3550 nM | IC50 (SW-620): 482 nM | IC50 (SW872): 1450 nM | IC50 (SiHa): > 16000 nM | IC50 (786-0): 342 nM | IC50 (A3-KAW): 901 nM | IC50 (A388): 865 nM | IC50 (AN3-CA): 1000 nM | IC50 (AU565): 1790 nM | IC50 (BFTC-905): 1880 nM | IC50 (C2BBe1): > 16000 nM | IC50 (C8166): > 16000 nM | IC50 (CAL-51): 3530 nM | IC50 (TGW): > 16000 nM | IC50 (U2OS): > 16000 nM | IC50 (VM-CUB-1): 5760 nM | IC50 (CAPAN-1): > 16000 nM | IC50 (COLO-668): 3390 nM

CCC1=C[C@@H]2CN(C1)Cc1c([nH]c3ccccc13)[C@@](C(=O)OC)(c1cc3c(cc1OC)N(C)[C@H]1[C@@](O)(C(=O)OC)[C@H](OC(C)=O)[C@]4(CC)C=CCN5CC[C@]31[C@@H]54)C2 [VINORELBINE]
IC50 (CaR-1): 59.1 nM | IC50 (D-502MG): > 64 nM | IC50 (DOK): > 64 nM | IC50 (ESS-1): 9.14 nM | IC50 (EW-18): 7.05 nM | IC50 (EW-3): > 64 nM | IC50 (HCC1954): 10.1 nM | IC50 (HCE-4): 20.8 nM | IC50 (HMV-2 cell line): 4.77 nM | IC50 (JEG-3): 14.1 nM | IC50 (KARPAS-45): 5.74 nM | IC50 (KE-37): 4.42 nM | IC50 (KLE): > 64 nM | IC50 (KS-1): 1.47 nM | IC50 (KU812 cell line): 9.3 nM | IC50 (KYSE-180): 7.13 nM | IC50 (LoVo): 7.9 nM | IC50 (M059J): 14.1 nM | IC50 (M14): 21.1 nM | IC50 (MOLT-16): 12.8 nM | IC50 (MeWo): 15.2 nM | IC50 (NCI-H1355): 2.9 nM | IC50 (NCI-H1755): 17.4 nM | IC50 (NCI-H292): 5.05 nM | IC50 (NCI-H69): 6.34 nM | IC50 (NCI-H82): 60 nM | IC50 (NMC-G1): 14.9 nM | IC50 (OCUB-M): 4.43 nM | IC50 (OVCAR-4): 1.75 nM | IC50 (P30-OHK): 10.1 nM | IC50 (PC-3): > 64 nM | IC50 (RKO): 1.52 nM | IC50 (RPMI-8866): 7 nM | IC50 (S-117): > 64 nM | IC50 (SCC-9): 2.05 nM | IC50 (SF-126): > 64 nM | IC50 (SK-LU-1): 51.8 nM | IC50 (SW-620): 8.52 nM | IC50 (SW872): 5.65 nM | IC50 (SiHa): > 64 nM | IC50 (786-0): 2.99 nM | IC50 (A3-KAW): 21.6 nM | IC50 (A388): 6.07 nM | IC50 (AN3-CA): 6.27 nM | IC50 (AU565): 8.19 nM | IC50 (BFTC-905): 3.62 nM | IC50 (C2BBe1): > 64 nM | IC50 (C8166): 17.6 nM | IC50 (CAL-51): 8.61 nM | IC50 (TGW): > 64 nM | IC50 (U2OS): > 64 nM | IC50 (VM-CUB-1): 19.1 nM | IC50 (CAPAN-1): 14.2 nM | IC50 (COLO-668): 28.5 nM

— ChEMBL document CHEMBL1201861, “Genomics of Drug Sensitity in Cancer screening data, Wellcome Trust Sanger Institute”
